Source: patent US10189863B2, “5,6-dihydro-4H-benzo[b]thieno-[2,3-d]azepine derivatives” (PULMOCIDE LIMITED, priority 2014, dated 2019)

How the values were obtained:
RSV B Washington strain = assay: Assessment of RSV induced CPE in HEp2 cells (RSV B Washington strain); format: cell-based; details: human respiratory syncytial virus, HEp2 cells; for IC50: HEp-2, 144 h, 1 MOI, 6 days, read-out: RSV B CPE IC50; for inhibition at 1 µg/mL / inhibition at 0.1 µg/mL: HEp-2; for inhibition at 1 µg/mL: Inhibition (%) at 1 μg/mL, read-out: RSV B CPE % Inhibition; for inhibition at 0.1 µg/mL: Inhibition (%) at 0.1 μg/mL
Method in brief: (§1)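 HEp2 cells were infected at MOI 1 with RSV A2 or RSV B Washington, with compound added at the same time (0.5% DMSO final). Incubation was 5 days for A2 and 6 days for B, then viability was read by resazurin fluorescence (545/590 nm) after 6 h. IC50, IC75 and IC90 came from concentration-response curves.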

[1] = Cell viability: resazurin assay; format: cell-based, human; details: human, HEp2 cells
Method in brief: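 Viability read-out: resazurin fluorescence (ex 545, em 590 nm) after 6 h, following 5-day compound incubation of HEp2 cells (37 °C, 5% CO2, 5% FBS, 0.5% DMSO final). Loss expressed as percentage of vehicle, negative if viability rose; CC50 derived from concentration-response curve where appropriate.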

RSV A2 strain = assay: Assessment of RSV induced CPE in HEp2 cells (RSV A2 strain); format: cell-based; details: human respiratory syncytial virus, HEp2 cells; for IC50: HEp-2, 120 h, 1 MOI, 5 days, read-out: RSV A2 CPE IC50; for inhibition at 0.01 µg/mL / inhibition at 0.1 µg/mL: HEp-2; for inhibition at 0.01 µg/mL: Inhibition (%) at 0.01 μg/mL; for inhibition at 0.1 µg/mL: Inhibition (%) at 0.1 μg/mL, read-out: RSV A2 CPE % Inhibition
Method in brief: as §1

IC50 (RSV B Washington strain) [nM] | IC50 (RSV A2 strain) [nM] | Structure (SMILES) | inhibition at 1 µg/mL (RSV B Washington strain) [%] | CC50 at 5 days [1] [nM] | inhibition at 0.01 µg/mL (RSV A2 strain) [%] | inhibition at 0.1 µg/mL (RSV B Washington strain) [%] | inhibition at 0.1 µg/mL (RSV A2 strain) [%]
1.3 | 0.42 | Cc1cccc(F)c1NC(=O)c1cc2c(s1)-c1ccccc1N(C(=O)c1ccc(NC(=O)c3cc4c(nc3N3CC5(CCOCC5)C3)CCOC4)cc1)CC2 [Example 12, N-(4-(2-((2-Fluoro-6-methylphenyl)carbamoyl)-5,6-dihydro-4H-benzo[b]thieno[2,3-d]azepine-6-carbonyl)phenyl)-2-(7-oxa-2-azaspiro[3.5]nonan-2-yl)-7,8-di hydro-5H-pyrano[4,3-b]pyridine-3-carboxamide] | 98 | > 13200 | 100 |  | 
7.2 | 0.15 | C#Cc1cccc(F)c1NC(=O)c1cc2c(s1)-c1ccccc1N(C(=O)c1ccc(NC(=O)c3cc(C)cnc3N3CC4(CCOCC4)C3)cc1)CC2 [Example 37, N-(2-ethynyl-6-fluorophenyl)-6-(4-(5-methyl-2-(7-oxa-2-azaspiro[3.5]nonan-2-yl)nicotinamido)benzoyl)-5,6-dihydro-4H-benzo[b]thieno[2,3-d]azepine-2-carboxamide] | 100 | > 13800 | 100 |  | 
7.6 | 0.78 | O=C(Nc1c(F)cccc1F)c1cc2c(s1)-c1ccccc1N(C(=O)c1ccc(NC(=O)c3cc4c(nc3N3CC5(CCOCC5)C3)CCOC4)cc1)CC2 [Example 82, N-(4-(2-((2,6-difluorophenyl)carbamoyl)-5,6-dihydro-4H-benzo[b]thieno[2,3-d]azepine-6-carbonyl)phenyl)-2-(7-oxa-2-azaspiro[3.5]nonan-2-yl)-7,8-dihydro-5H-pyrano[4,3-b] pyridine-3-carboxamide] |  | > 13100 | 97 | 100 | 
89.8 | 1.5 | Cc1cnc(N2CC3(CCOCC3)C2)c(C(=O)Nc2ccc(C(=O)N3CCc4cc(C(=O)Nc5c(F)cccc5OCCO)sc4-c4ccccc43)cc2)c1 [Example 54, N-(2-fluoro-6-(2-hydroxyethoxy)phenyl)-6-(4-(5-methyl-2-(7-oxa-2-azaspiro[3.5]nonan-2-yl)nicotinamido)benzoyl)-5,6-dihydro-4H-benzo[b]thieno[2,3-d]azepine-2-carboxamide] | 100 | > 13100 | 100 |  | 
19.2 | 4.9 | Cc1cccc(C#N)c1NC(=O)c1cc2c(s1)-c1ccccc1N(C(=O)c1ccc(NC(=O)c3cc4c(nc3N3CC5(CCOCC5)C3)CCC4)cc1F)CC2 [Example 77, 6-(4-(2-(7-oxa-2-azaspiro[3.5]nonan-2-yl)-6,7-dihydro-5H-cyclopenta[b]pyridine-3-carboxamido)-2-fluorobenzoyl)-N-(2-cyano-6-methylphenyl)-5,6-dihydro-4H-benzo[b]thieno [2,3-d]azepine-2-carboxamide] | 92 | > 13000 | 94 |  | 
1.3 | 0.13 | Cc1ccc(C(=O)Nc2ccc(C(=O)N3CCc4cc(C(=O)Nc5c(F)cccc5F)sc4-c4ccccc43)cc2)c(N2CC3(CCOCC3)C2)n1 [Example 49, N-(2,6-difluorophenyl)-6-(4-(6-methyl-2-(7-oxa-2-aza-spiro[3.5]nonan-2-yl)nicotinamido)benzoyl)-5,6-dihydro-4H-benzo[b]thieno[2,3-d]azepine-2-carboxamide] | 100 | > 13900 |  |  | 100
1.7 | 0.13 | Cc1ccc(C(=O)Nc2ccc(C(=O)N3CCc4cc(C(=O)Nc5c(F)cc(F)cc5F)sc4-c4ccccc43)cc2)c(N2CC3(CCOCC3)C2)n1 [Example 50, 6-(4-(6-methyl-2-(7-oxa-2-azaspiro[3.5]nonan-2-yl)nicotinamido)benzoyl)-N-(2,4,6-trifluorophenyl)-5,6-dihydro-4H-benzo[b]thieno[2,3-d]azepine-2-carboxamide] | 100 | > 13600 |  |  | 100
7 | 0.069 | Cc1cc(C(=O)Nc2ccc(C(=O)N3CCc4cc(C(=O)Nc5c(F)cccc5Cl)sc4-c4ccccc43)cc2)c(N2CC3(CCOCC3)C2)nc1C [Example 46, N-(2-chloro-6-fluorophenyl)-6-(4-(5,6-dimethyl-2-(7-oxa-2-azaspiro[3.5]nonan-2-yl)nicotinamido)benzoyl)-5,6-di-hydro-4H-benzo[b]thieno[2,3-d]azepine-2-carboxamide] | 86 | > 13300 |  |  | 100
> 1440 | 0.16 | C#Cc1ccc(NC(=O)c2cc3c(s2)-c2ccccc2N(C(=O)c2ccc(NC(=O)c4cccnc4N4CC5(CCOCC5)C4)cc2)CC3)cc1 [Example 18, 6-(4-(2-(7-oxa-2-azaspiro[3.5]nonan-2-yl)nicotinamido)benzoyl)-N-(4-ethynylphenyl)-5,6-dihydro-4H-benzo[b] thieno[2,3-d]azepine-2-carboxamide] | 18 | > 14400 |  |  | 75
5.7 | 0.13 | Cc1cnc(N2CC3(CCOCC3)C2)c(C(=O)Nc2ccc(C(=O)N3CCc4cc(C(=O)Nc5c(F)cccc5F)sc4-c4ccccc43)cc2)c1 [Example 47, N-(2,6-difluorophenyl)-6-(4-(5-methyl-2-(7-oxa-2-aza-spiro[3.5]nonan-2-yl)nicotinamido)benzoyl)-5,6-dihydro-4H-benzo[b]thieno[2,3-d]azepine-2-carboxamide] |  | > 13900 | 100 | 100 | 
15.4 | 0.11 | Cc1ccc(C(=O)Nc2ccc(C(=O)N3CCc4cc(C(=O)Nc5c(F)cccc5Cl)sc4-c4ccccc43)cc2)c(N2CC3(CCOCC3)C2)n1 [Example 41, N-(2-chloro-6-fluorophenyl)-6-(4-(6-methyl-2-(7-oxa-2-azaspiro[3.5]nonan-2-yl)nicotinamido)benzoyl)-5,6-dihydro-4H-benzo[b]thieno[2,3-d]azepine-2-carboxamide] | 79 | > 13600 |  |  | 100
28 | 0.14 | O=C(Nc1c(F)cccc1F)c1cc2c(s1)-c1ccccc1N(C(=O)c1ccc(NC(=O)c3cccnc3N3CC4(CCOCC4)C3)cc1)CC2 [Example 19, 6-(4-(2-(7-oxa-2-azaspiro[3.5]nonan-2-yl)nicotinamido)benzoyl)-N-(2,6-difluorophenyl)-5,6-dihydro-4H-benzo[b] thieno[2,3-d]azepine-2-carboxamide] |  | > 14200 |  | 100 | 88
14.8 | 2.6 | C=C(C)c1cnc(N2CC3(CCOCC3)C2)c(C(=O)Nc2ccc(C(=O)N3CCc4cc(C(=O)Nc5c(F)cccc5F)sc4-c4ccccc43)cc2)c1 [Example 73, N-(2,6-difluorophenyl)-6-(4-(5-(prop-1-en-2-yl)-2-(7-oxa-2-azaspiro[3.5]nonan-2-yl)nicotinamido)benzoyl)-5,6-dihydro-4H-benzo[b]thieno[2,3-d]azepine-2-carboxamide] | 98 | > 13400 | 84 |  | 
20.6 | 0.18 | Cc1cccc(F)c1NC(=O)c1cc2c(s1)-c1ccccc1N(C(=O)c1ccc(NC(=O)c3cccnc3N3CC4(CCOCC4)C3)cc1)CC2 [Example 25, 6-(4-(2-(7-oxa-2-azaspiro[3.5]nonan-2-yl)nicotinamido)benzoyl)-N-(2-fluoro-6-methylphenyl)-5,6-dihydro-4H-benzo[b]thieno[2,3-d]azepine-2-carboxamide] | 71 | > 14200 |  |  | 99
3.8 | 0.88 | Cc1cccc(C#N)c1NC(=O)c1cc2c(s1)-c1ccccc1N(C(=O)c1ccc(NC(=O)c3cc4c(nc3N3CC5(CCOCC5)C3)CCC4)cc1)CC2 [Example 74, 6-(4-(2-(7-oxa-2-azaspiro[3.5]nonan-2-yl)-6,7-dihydro-5H-cyclopenta[b]pyridine-3-carboxamido)benzoyl)-N-(2-cyano-6-methylphenyl)-5,6-dihydro-4H-benzo[b]thieno[2,3-d]azepine-2-carboxamide] | 77 | > 13400 | 100 |  | 
13.4 | 0.16 | C=Cc1cccc(F)c1NC(=O)c1cc2c(s1)-c1ccccc1N(C(=O)c1ccc(NC(=O)c3cc(C)cnc3N3CC4(CCOCC4)C3)cc1)CC2 [Example 36, N-(2-fluoro-6-vinylphenyl)-6-(4-(5-methyl-2-(7-oxa-2-azaspiro[3.5]nonan-2-yl)nicotinamido)benzoyl)-5,6-dihydro-4H-benzo[b]thieno[2,3-d]azepine-2-carboxamide] | 99 | > 13700 | 95 |  | 
